Test results reported in US5672715A, “Herbicidal substituted 3-aryl-pyrazoles” (Monsanto Company, priority 1995, dated 1997).

Columns and labels:
Format in all cases: in vivo
[1] = tested on: Seedling Johnsongrass; test: pre-emergence herbicide test; settings: Sorghum halepense, pre-emergence, 0.25 lb/A; read-out: % plant inhibition
How it was run: (§1)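 Greenhouse pan assay in which seeds lie under a treated topsoil cover; carrier was acetone or water. Inhibition (%) was recorded about 14 days post-treatment.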

[2] = tested on: Downy Brome; test: pre-emergence herbicide test; settings: Bromus tectorum, pre-emergence, 0.25 lb/A; read-out: % plant inhibition
How it was run: as §1

[3] = tested on: Wild Oats; test: pre-emergence herbicide test; settings: Avena fatua, pre-emergence, 0.25 lb/A; read-out: % plant inhibition
How it was run: as §1

[4] = tested on: Soybean; test: pre-emergence herbicide test; settings: Glycine max, pre-emergence, 0.25 lb/A; read-out: % plant inhibition
How it was run: as §1

[5] = tested on: Blackgrass; test: pre-emergence herbicide test; settings: Alopecurus myosuroides, pre-emergence, 0.25 lb/A; read-out: % plant inhibition
How it was run: as §1

[6] = tested on: Barnyardgrass; test: pre-emergence herbicide test; settings: Echinochloa crus-galli, pre-emergence, 0.25 lb/A; read-out: % plant inhibition
How it was run: as §1

[7] = tested on: Common Chickweed; test: pre-emergence herbicide test; settings: pre-emergence, 0.25 lb/A; read-out: % plant inhibition
How it was run: as §1

[8] = tested on: Bedstraw Catchweed; test: pre-emergence herbicide test; settings: Galium aparine, pre-emergence, 0.25 lb/A; read-out: % plant inhibition
How it was run: as §1

[9] = tested on: Wheat; test: pre-emergence herbicide test; settings: Triticum aestivum, pre-emergence, 0.25 lb/A; read-out: % plant inhibition
How it was run: as §1

[10] = tested on: Green Foxtail; test: pre-emergence herbicide test; settings: Setaria viridis, pre-emergence; 0.25 lb/A; read-out: % plant inhibition
How it was run: as §1

[11] = tested on: Birdseye Speedwell; test: pre-emergence herbicide test; settings: pre-emergence, 0.25 lb/A; read-out: % plant inhibition
How it was run: as §1

[12] = tested on: Corn; test: pre-emergence herbicide test; settings: Zea mays, pre-emergence, 0.25 lb/A; read-out: % plant inhibition
How it was run: as §1

[13] = tested on: Cocklebur; test: pre-emergence herbicide test; settings: Xanthium strumarium, pre-emergence, 0.25 lb/A; read-out: % plant inhibition
How it was run: as §1

[14] = tested on: Velvetleaf; test: pre-emergence herbicide test; settings: Abutilon theophrasti, pre-emergence, 0.25 lb/A; read-out: % plant inhibition
How it was run: as §1

[15] = tested on: Rape; test: pre-emergence herbicide test; settings: pre-emergence, 0.25 lb/A; read-out: % plant inhibition
How it was run: as §1

[16] = tested on: Morning Glory; test: pre-emergence herbicide test; settings: Ipomoea, pre-emergence, 0.25 lb/A; read-out: % plant inhibition
How it was run: as §1

[17] = tested on: Giant Foxtail; test: pre-emergence herbicide test; settings: Setaria faberi, pre-emergence, 0.25 lb/A; read-out: % plant inhibition
How it was run: as §1

[18] = tested on: Seedling Johnsongrass; test: post-emergence herbicide test; settings: Sorghum halepense, post-emergence, 0.25 lb/A; read-out: % plant inhibition
How it was run: (§2)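 Two- to three-week-old plants, greenhouse-grown in compacted topsoil, received candidate chemical by atomizer spray at 1870 L/Ha. Scored as percent inhibition.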

[19] = tested on: Downy Brome; test: post-emergence herbicide test; settings: Bromus tectorum, post-emergence, 0.25 lb/A; read-out: % plant inhibition
How it was run: as §2

[20] = tested on: Wild Oats; test: post-emergence herbicide test; settings: Avena fatua, post-emergence, 0.25 lb/A; read-out: % plant inhibition
How it was run: as §2

[21] = tested on: Soybean; test: post-emergence herbicide test; settings: Glycine max, post-emergence, 0.25 lb/A; read-out: % plant inhibition
How it was run: as §2

[22] = tested on: Blackgrass; test: post-emergence herbicide test; settings: Alopecurus myosuroides, post-emergence, 0.25 lb/A; read-out: % plant inhibition
How it was run: as §2

[23] = tested on: Barnyardgrass; test: post-emergence herbicide test; settings: Echinochloa crus-galli, post-emergence, 0.25 lb/A; read-out: % plant inhibition
How it was run: as §2

[24] = tested on: Common Chickweed; test: post-emergence herbicide test; settings: post-emergence, 0.25 lb/A; read-out: % plant inhibition
How it was run: as §2

[25] = tested on: Bedstraw Catchweed; test: post-emergence herbicide test; settings: Galium aparine, post-emergence, 0.25 lb/A; read-out: % plant inhibition
How it was run: as §2

[26] = tested on: Wheat; test: post-emergence herbicide test; settings: Triticum aestivum, post-emergence, 0.25 lb/A; read-out: % plant inhibition
How it was run: as §2

[27] = tested on: Green Foxtail; test: post-emergence herbicide test; settings: Setaria viridis, post-emergence, 0.25 lb/A; read-out: % plant inhibition
How it was run: as §2

[28] = tested on: Birdseye Speedwell; test: post-emergence herbicide test; settings: post-emergence, 0.25 lb/A; read-out: % plant inhibition
How it was run: as §2

[29] = tested on: Corn; test: post-emergence herbicide test; settings: Zea mays, post-emergence, 0.25 lb/A; read-out: % plant inhibition
How it was run: as §2

[30] = tested on: Cocklebur; test: post-emergence herbicide test; settings: Xanthium strumarium, post-emergence, 0.25 lb/A; read-out: % plant inhibition
How it was run: as §2

[31] = tested on: Velvetleaf; test: post-emergence herbicide test; settings: Abutilon theophrasti, post-emergence, 0.25 lb/A; read-out: % plant inhibition
How it was run: as §2

[32] = tested on: Rape; test: post-emergence herbicide test; settings: post-emergence, 0.25 lb/A; read-out: % plant inhibition
How it was run: as §2

[33] = tested on: Morning Glory; test: post-emergence herbicide test; settings: Ipomoea, post-emergence, 0.25 lb/A; read-out: % plant inhibition
How it was run: as §2

[34] = tested on: Giant Foxtail; test: post-emergence herbicide test; settings: Setaria faberi, post-emergence, 0.25 lb/A; read-out: % plant inhibition
How it was run: as §2

Row | SMILES | inhibition at 280.212 g/ha [1] [%] | inhibition at 280.212 g/ha [2] [%] | inhibition at 280.212 g/ha [3] [%] | inhibition at 280.212 g/ha [4] [%] | inhibition at 280.212 g/ha [5] [%] | inhibition at 280.212 g/ha [6] [%] | inhibition at 280.212 g/ha [7] [%] | inhibition at 280.212 g/ha [8] [%] | inhibition at 280.212 g/ha [9] [%] | inhibition at 280.212 g/ha [10] [%] | inhibition at 280.212 g/ha [11] [%] | inhibition at 280.212 g/ha [12] [%] | inhibition at 280.212 g/ha [13] [%] | inhibition at 280.212 g/ha [14] [%] | inhibition at 280.212 g/ha [15] [%] | inhibition at 280.212 g/ha [16] [%] | inhibition at 280.212 g/ha [17] [%] | inhibition at 280.212 g/ha [18] [%] | inhibition at 280.212 g/ha [19] [%] | inhibition at 280.212 g/ha [20] [%] | further results
1 | CCCCCOC(=O)c1cc(-c2nn(C)c(C(F)(F)F)c2C)c(F)cc1Cl [Compound 48] | 98 | 90 | 45 | 0 | 60 | 100 | 95 | 45 | 0 | 100 | 100 | 35 | 45 | 95 | 5 | 99 | 99 | 85 | 65 | 75 | inhibition at 280.212 g/ha [21]: 70%; inhibition at 280.212 g/ha [22]: 70%; inhibition at 280.212 g/ha [23]: 60%; inhibition at 280.212 g/ha [24]: 65%; inhibition at 280.212 g/ha [25]: 80%; inhibition at 280.212 g/ha [26]: 16%; inhibition at 280.212 g/ha [27]: 98%; inhibition at 280.212 g/ha [28]: 100%; inhibition at 280.212 g/ha [29]: 7%; inhibition at 280.212 g/ha [30]: 90%; inhibition at 280.212 g/ha [31]: 100%; inhibition at 280.212 g/ha [32]: 60%; inhibition at 280.212 g/ha [33]: 75%; inhibition at 280.212 g/ha [34]: 99%
2 | CCCCCCCCCCCCOC(=O)c1cc(-c2nn(C)c(C(F)(F)F)c2C)c(F)cc1Cl [Compound 49] | 45 | 5 | 5 | 0 | 5 | 75 | 5 | 5 | 0 | 60 | 55 | 0 | 0 | 0 | 0 | 40 | 10 | 5 | 20 | 20 | inhibition at 280.212 g/ha [21]: 5%; inhibition at 280.212 g/ha [22]: 20%; inhibition at 280.212 g/ha [23]: 0%; inhibition at 280.212 g/ha [24]: 10%; inhibition at 280.212 g/ha [25]: 35%; inhibition at 280.212 g/ha [26]: 10%; inhibition at 280.212 g/ha [27]: 60%; inhibition at 280.212 g/ha [28]: 80%; inhibition at 280.212 g/ha [29]: 5%; inhibition at 280.212 g/ha [30]: 50%; inhibition at 280.212 g/ha [31]: 10%; inhibition at 280.212 g/ha [32]: 20%; inhibition at 280.212 g/ha [33]: 5%; inhibition at 280.212 g/ha [34]: 0%
3 | Cc1c(-c2cc(C(=O)OCSC#N)c(Cl)cc2F)nn(C)c1C(F)(F)F [Compound 50] | 0 | 5 | 0 | 0 | 5 | 25 | 35 | 25 | 0 | 10 | 35 | 0 | 0 | 40 | 0 | 0 | 0 | 0 | 10 | 10 | inhibition at 280.212 g/ha [21]: 7%; inhibition at 280.212 g/ha [22]: 5%; inhibition at 280.212 g/ha [23]: 5%; inhibition at 280.212 g/ha [24]: 60%; inhibition at 280.212 g/ha [25]: 35%; inhibition at 280.212 g/ha [26]: 10%; inhibition at 280.212 g/ha [27]: 25%; inhibition at 280.212 g/ha [28]: 75%; inhibition at 280.212 g/ha [29]: 5%; inhibition at 280.212 g/ha [30]: 60%; inhibition at 280.212 g/ha [31]: 90%; inhibition at 280.212 g/ha [32]: 15%; inhibition at 280.212 g/ha [33]: 35%; inhibition at 280.212 g/ha [34]: 0%
